Substitutions are numbered along the chain they refer to. Active and inactive are the calls of the source. The calls are words filed in the database; no cut-off is given here. Some results are limits rather than exact numbers.

In data set [1] the target is T1, 4,4'-diapophytoene desaturase (4,4'-diaponeurosporene-forming) (Staphylococcus aureus (strain Newman), UniProt O07855).
T1 sequence (O07855 whole entry): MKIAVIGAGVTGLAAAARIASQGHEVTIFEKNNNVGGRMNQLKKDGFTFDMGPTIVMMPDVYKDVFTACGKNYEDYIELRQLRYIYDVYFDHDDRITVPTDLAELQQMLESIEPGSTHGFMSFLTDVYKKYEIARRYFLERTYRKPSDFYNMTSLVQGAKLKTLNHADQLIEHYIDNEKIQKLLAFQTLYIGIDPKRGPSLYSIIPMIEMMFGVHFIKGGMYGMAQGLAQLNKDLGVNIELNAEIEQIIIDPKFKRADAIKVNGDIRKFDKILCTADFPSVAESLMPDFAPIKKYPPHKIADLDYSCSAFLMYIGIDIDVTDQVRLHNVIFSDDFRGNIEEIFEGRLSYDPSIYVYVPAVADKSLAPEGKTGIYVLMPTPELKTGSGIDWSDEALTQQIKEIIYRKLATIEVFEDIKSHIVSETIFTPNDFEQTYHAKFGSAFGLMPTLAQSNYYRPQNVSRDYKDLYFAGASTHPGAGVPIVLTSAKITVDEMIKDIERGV
In words: Inhibition of CrtN in Staphylococcus aureus Newman assessed as reduction in staphyloxanthin levels after 48 hrs by spectrophotometric method-based pigment inhibition assay. Set-up: species or system Staphylococcus aureus subsp. aureus str. Newman.

Data set [2] has as its target T1, 4,4'-diapophytoene desaturase (4,4'-diaponeurosporene-forming). Briefly: Inhibition of Staphylococcus aureus Newman […]-tagged CrtN expressed in Escherichia coli BL21(DE3))/pET28a::CrtN assessed as reduction in staphyloxanthin levels using diapophytoene as substrate after overnight incubation. Also on record: species or system Staphylococcus aureus subsp. aureus str. Newman.

For data set [3], the target named is T2, 4,4'-diapophytoene desaturase (4,4'-diaponeurosporene-forming) (Staphylococcus aureus (strain Mu50 / ATCC 700699), UniProt Q99R76).
T2 sequence (Q99R76 whole entry): T1 sequence (O07855 whole entry)
In words: Inhibition of CrtN in vancomycin-intermediate Staphylococcus aureus Mu50 assessed as reduction in staphyloxanthin levels after 48 hrs by spectrophotometric method-based pigment inhibition assay. Also on record: species or system Staphylococcus aureus subsp. aureus Mu50.

Data set [4] deals with T1, 4,4'-diapophytoene desaturase (4,4'-diaponeurosporene-forming). In words: Inhibition of CrtN in linezolid-resistant Staphylococcus aureus NRS271 assessed as reduction in staphyloxanthin levels after 48 hrs by spectrophotometric method-based pigment inhibition assay.
Data set [5] addresses T3, 4,4'-diapophytoene desaturase (4,4'-diaponeurosporene-forming) (Staphylococcus aureus (strain MW2), UniProt Q8NUQ6).
T3 sequence (Q8NUQ6 whole entry): T1 sequence (O07855 whole entry) with R500Q
In words: Inhibition of CrtN in methicillin-resistant Staphylococcus aureus USA400 MW2 assessed as reduction in staphyloxanthin levels after 48 hrs by spectrophotometric method-based pigment inhibition assay. Set-up: species or system Staphylococcus aureus subsp. aureus MW2.

Data set [6] addresses T3, 4,4'-diapophytoene desaturase (4,4'-diaponeurosporene-forming). Briefly: Inhibition of CrtN in methicillin-resistant Staphylococcus aureus LAC USA300 assessed as reduction in staphyloxanthin levels after 48 hrs by spectrophotometric method-based pigment inhibition assay. Also on record: species or system Staphylococcus aureus subsp. aureus USA300.
The nature of data set [7]: Solubility of the compound in water at 10 mg measured after 24 hrs by HPLC method. The format is physicochemical.
For data set [8], the system named is Staphylococcus aureus. In words: Antibacterial activity against vancomycin-intermediate Staphylococcus aureus Mu50 infected in BALB/c mouse assessed as reduction of bacterial burden in heart at 0.1 mg, ip bid for 3.5 days administered 6 hrs post bacterial infection measured 84 hrs post infection relative to control. The format is functional.
In data set [9] the test system is Staphylococcus aureus. In words: Antibacterial activity against vancomycin-intermediate Staphylococcus aureus Mu50 infected in BALB/c mouse assessed as reduction of bacterial burden in heart at 0.4 mg, ip bid for 3.5 days administered 6 hrs post bacterial infection measured 84 hrs post infection relative to control. The format is functional.
The subject of data set [10] is Staphylococcus aureus. Briefly: Antibacterial activity against vancomycin-intermediate Staphylococcus aureus Mu50 infected in BALB/c mouse assessed as reduction of bacterial burden in liver at 0.1 mg, ip bid for 3.5 days administered 6 hrs post bacterial infection measured 84 hrs post infection. Type of data set: functional, organism-based.
The test system of data set [11] is Staphylococcus aureus. In words: Antibacterial activity against vancomycin-intermediate Staphylococcus aureus Mu50 infected in BALB/c mouse assessed as reduction of bacterial burden in liver at 0.4 mg, ip bid for 3.5 days administered 6 hrs post bacterial infection measured 84 hrs post infection. Type of data set: functional, organism-based.
Data set [12] deals with Staphylococcus aureus. Briefly: Antibacterial activity against vancomycin-intermediate Staphylococcus aureus Mu50 infected in BALB/c mouse assessed as reduction of bacterial burden in liver at 0.1 mg, ip bid administered at 12 hrs prior to bacterial infection dosed at 12 intervals for 4.5 days. Type of data set: functional, organism-based.
Data set [13] concerns Staphylococcus aureus. Briefly: Antibacterial activity against vancomycin-intermediate Staphylococcus aureus Mu50 infected in BALB/c mouse assessed as reduction of bacterial burden in liver at 0.4 mg, ip bid administered at 12 hrs prior to bacterial infection dosed at 12 intervals for 4.5 days. Type of data set: functional, organism-based.
Data set [14] deals with Voltage-gated inwardly rectifying potassium channel KCNH2 (Homo sapiens, UniProt Q12809). Briefly: Inhibition of recombinant human ERG expressed in CHO cells at -80 mV holding potential measured after 3 minutes by automated whole cell patch clamp Qpatch method. The format is cell-based. A general note: Patch clamp records ionic current or voltage across a cell membrane.

Data set [15] is described as follows: Half life in human liver microsomes at 2 uM by LC-MS/MS analysis. Type of data set: ADME, microsome.
Data set [16] deals with Staphylococcus aureus. In words: Antibacterial activity against linezolid-resistant Staphylococcus aureus NRS271 infected in BALB/c mouse assessed as reduction of bacterial burden in liver at 0.1 mg, ip bid administered at 12 hrs prior to bacterial infection dosed at 12 intervals for 4.5 days. The format is functional, organism-based.
Data set [17] relates to Staphylococcus aureus. Briefly: Antibacterial activity against linezolid-resistant Staphylococcus aureus NRS271 infected in BALB/c mouse assessed as reduction of bacterial burden in liver at 0.4 mg, ip bid administered at 12 hrs prior to bacterial infection dosed at 12 intervals for 4.5 days. The format is functional, organism-based.
The test system of data set [18] is Staphylococcus aureus. Briefly: Antibacterial activity against linezolid-resistant Staphylococcus aureus NRS271 infected in BALB/c mouse assessed as reduction of bacterial burden in heart at 0.1 mg, ip bid administered at 24 hrs prior to bacterial infection dosed at 12 intervals for 4.5 days.
The test system of data set [19] is Staphylococcus aureus. Briefly: Antibacterial activity against linezolid-resistant Staphylococcus aureus NRS271 infected in BALB/c mouse assessed as reduction of bacterial burden in heart at 0.4 mg, ip bid administered at 24 hrs prior to bacterial infection dosed at 12 intervals for 4.5 days.

Sequence of Voltage-gated inwardly rectifying potassium channel KCNH2 (Q12809 whole entry): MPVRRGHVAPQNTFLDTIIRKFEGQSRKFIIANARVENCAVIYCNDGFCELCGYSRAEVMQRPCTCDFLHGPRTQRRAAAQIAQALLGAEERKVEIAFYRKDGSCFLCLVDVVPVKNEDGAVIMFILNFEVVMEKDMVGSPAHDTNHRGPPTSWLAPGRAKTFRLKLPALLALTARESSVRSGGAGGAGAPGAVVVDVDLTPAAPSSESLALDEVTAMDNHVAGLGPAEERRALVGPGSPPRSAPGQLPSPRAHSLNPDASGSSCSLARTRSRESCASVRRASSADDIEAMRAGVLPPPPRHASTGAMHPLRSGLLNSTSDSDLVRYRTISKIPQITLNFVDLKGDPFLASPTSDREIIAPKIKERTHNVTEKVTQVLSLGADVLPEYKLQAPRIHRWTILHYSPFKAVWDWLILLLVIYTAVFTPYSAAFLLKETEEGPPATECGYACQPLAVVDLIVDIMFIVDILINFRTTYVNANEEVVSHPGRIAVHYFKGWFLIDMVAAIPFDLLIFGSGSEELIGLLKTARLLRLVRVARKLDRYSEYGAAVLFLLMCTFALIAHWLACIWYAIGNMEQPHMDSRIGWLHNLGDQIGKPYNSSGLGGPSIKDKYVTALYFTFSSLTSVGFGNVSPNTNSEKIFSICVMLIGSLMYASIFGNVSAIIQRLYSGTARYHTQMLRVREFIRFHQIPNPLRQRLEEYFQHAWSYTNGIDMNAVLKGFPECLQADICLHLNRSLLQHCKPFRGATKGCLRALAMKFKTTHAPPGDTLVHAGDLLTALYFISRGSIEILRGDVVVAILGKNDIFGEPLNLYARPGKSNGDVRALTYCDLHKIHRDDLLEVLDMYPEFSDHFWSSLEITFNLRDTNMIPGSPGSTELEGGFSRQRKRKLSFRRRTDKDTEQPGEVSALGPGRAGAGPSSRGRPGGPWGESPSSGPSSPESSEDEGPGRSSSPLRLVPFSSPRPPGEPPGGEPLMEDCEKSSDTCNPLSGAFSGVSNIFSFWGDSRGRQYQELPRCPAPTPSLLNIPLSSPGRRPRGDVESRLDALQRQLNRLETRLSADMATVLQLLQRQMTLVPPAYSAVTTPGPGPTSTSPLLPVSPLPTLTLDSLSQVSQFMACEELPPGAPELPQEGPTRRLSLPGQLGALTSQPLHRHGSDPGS

Consider `CN(C/C=C/c1ccc(C(F)(F)F)cc1)Cc1ccc2c(c1)OCCO2.Cl`, for which the IC50 in data set [1] stood at 0.0029 µM; in data set [2], 0.341 µM; in data set [3] it was 0.0012 µM; in data set [4], 0.0011 µM; in data set [5], 0.0065 µM; in data set [6], 0.0059 µM. Also, the concentration in solution in data set [7] (solubility at 24 h) was 13500 µg/mL. With `CN(C/C=C/c1ccccc1Cl)Cc1ccc2c(c1)OCCO2`, the half-maximal inhibitory concentration (IC50) in data set [1] amounted to 0.0903 µM.

Turning to `CN(C/C=C/c1ccc([N+](=O)[O-])cc1)Cc1ccc2c(c1)OCCO2`, the IC50 in [1] was 0.0189 µM. Same read-out and setting: in the case of `CN(C/C=C/c1cccc2ccccc12)Cc1ccc2c(c1)OCCO2` it was > 1 µM; in that of `CN(C/C=C/c1ccc(C(C)(C)C)cc1)Cc1ccc2c(c1)OCCO2`, 0.156 µM. Regarding `COc1ccc(/C=C/CN(C)Cc2ccc3c(c2)CCCCC3)cc1.Cl`, the IC50 in data set [5] worked out at 0.0071 µM; in data set [6], 0.0077 µM. Further, the solubility at 24 h in [7] was found to be 4200 µg/mL. As for `CN(C/C=C/c1ccc(Br)cc1)Cc1ccc2c(c1)OCCO2`, the IC50 in [1] turned out to be 0.0082 µM. Same read-out and setting: in the case of `CN(C/C=C/c1ccccc1[N+](=O)[O-])Cc1ccc2c(c1)OCCO2` it was > 1 µM; in that of `CN(C/C=C/c1cccc(C(F)(F)F)c1)Cc1ccc2c(c1)OCCO2`, > 1 µM; in that of `CN(C/C=C/c1ccc(Cl)cc1Cl)Cc1ccc2c(c1)OCCO2`, 0.015 µM. Still for that read-out and setting: the same measure for `CN(C/C=C/c1cccc(Cl)c1)Cc1ccc2c(c1)OCCO2`: 0.112 µM; for `CN(C/C=C/c1cccs1)Cc1ccc2c(c1)OCCO2`: 0.221 µM; for `CN(C/C=C/c1ccc(C#N)cc1)Cc1ccc2c(c1)OCCO2`: 0.0192 µM. On the same count and under the same terms, in the case of `CN(C/C=C/c1ccccc1F)Cc1ccc2c(c1)OCCO2` it was > 1 µM. Turning to `CCOc1ccc(/C=C/CN(C)Cc2ccc3c(c2)OCCO3)cc1`, the half-maximal inhibitory concentration (IC50) in data set [1] came to 0.0082 µM. Regarding `CN(C/C=C/c1ccc(Cl)cc1)Cc1ccc2c(c1)OCCO2`, in data set [1], the concentration for half-maximal inhibition (IC50) was 0.0067 µM. Take `CN(C/C=C/C1CCCCC1)Cc1ccc2c(c1)OCCO2`: in [1], the IC50 is > 1 µM. On to `CN[C@H](CC(C)C)C(=O)N[C@H]1C(=O)N[C@@H](CC(N)=O)C(=O)N[C@H]2C(=O)N[C@H]3C(=O)N[C@H](C(=O)N[C@H](C(=O)O)c4cc(O)cc(O)c4-c4cc3ccc4O)[C@H](O)c3ccc(c(Cl)c3)Oc3cc2cc(c3O[C@@H]2O[C@H](CO)[C@@H](O)[C@H](O)[C@H]2O[C@H]2C[C@](C)(N)[C@H](O)[C@H](C)O2)Oc2ccc(cc2Cl)[C@H]1O`, for which the outcome in [8], in [9], in [10], in data set [11], in data set [12] and in data set [13] was Active.

With `Cc1cccc(/C=C/CN(C)Cc2ccc3c(c2)OCCO3)c1`, the IC50 in data set [1] came out at 0.0434 µM.

As to `CN(C/C=C/c1cccc(F)c1)Cc1ccc2c(c1)OCCO2`, in data set [1], the 50% inhibitory concentration (IC50) was > 1 µM. As for `CN(C/C=C/c1ccc(F)cc1)Cc1ccc2c(c1)OCCO2`, the IC50 in data set [1] amounted to 0.0201 µM. With `CN(C/C=C/c1ccc(C(F)(F)F)cc1)Cc1ccc2c(c1)CCCC2.Cl`, in data set [7], the concentration in solution (solubility at 24 h) came to 690 µg/mL. Turning to `CN(C/C=C/c1ccco1)Cc1ccc2c(c1)OCCO2`, the 50% inhibitory concentration (IC50) in [1] worked out at 0.228 µM. Still for that read-out and setting: the same measure for `CN(C/C=C/c1ccc(-c2ccccc2)cc1)Cc1ccc2c(c1)OCCO2`: 0.0041 µM; for `CN(C/C=C/c1cccc([N+](=O)[O-])c1)Cc1ccc2c(c1)OCCO2`: > 1 µM. For `Cc1ccc(/C=C/CN(C)Cc2ccc3c(c2)OCCO3)cc1.Cl`, the IC50 in data set [1] stood at 0.0032 µM; in data set [14], 4.6 µM. Also, the solubility at 24 h in data set [7] is 6500 µg/mL.

For the molecule `C/C=C/CN(C)Cc1ccc2c(c1)OCCO2`, the concentration for half-maximal inhibition (IC50) in data set [1] is > 1 µM. Turning to `CN(C/C=C/c1ccccc1)Cc1ccc2c(c1)OCCO2`, the IC50 in data set [1] stood at 0.371 µM. On the same count and under the same terms, in the case of `COc1cccc(/C=C/CN(C)Cc2ccc3c(c2)OCCO3)c1` it was > 1 µM. For the molecule `CN(C/C=C/C=C/C=C/c1ccc(C(F)(F)F)cc1)Cc1ccc2c(c1)OCCO2.Cl`, the IC50 stood at 0.0016 µM in data set [1]; 0.258 µM in data set [2]; 0.0012 µM in data set [3]; 0.0004 µM in data set [4]; 0.0053 µM in data set [5]; 0.0037 µM in [6]. Moreover, in [14], the IC50 turned out to be 8.7 µM. This molecule also had a solubility at 24 h in [7] of 3300 µg/mL. Consider `Cc1ncc2n1-c1ccc(Cl)cc1C(c1ccccc1F)=NC2` [MIDAZOLAM], for which the half-life at 2 µM in [15] came out at 4.2 min. In the case of `COc1ccc(/C=C/CN(C)Cc2ccc3c(c2)OCCO3)c(F)c1`, the IC50 in data set [1] was determined as 0.0435 µM.

With `CN(C/C=C/c1ccc(C(F)(F)F)cc1F)Cc1ccc2c(c1)OCCO2`, the half-inhibitory concentration (IC50) in data set [1] is 0.0088 µM. Same read-out and setting: the same measure for `CN(C/C=C/c1ccccc1C(F)(F)F)Cc1ccc2c(c1)OCCO2`: > 1 µM; for `CN(C/C=C/C1CCCC1)Cc1ccc2c(c1)OCCO2`: 0.321 µM. Still for that read-out and setting: the same measure for `COc1ccc(/C=C/CN(C)Cc2ccc3c(c2)OCCO3)cc1F`: 0.0579 µM; for `CN(C/C=C/c1ccc(C(F)(F)F)c(F)c1)Cc1ccc2c(c1)OCCO2`: 0.0137 µM; for `Cc1ccccc1/C=C/CN(C)Cc1ccc2c(c1)OCCO2`: > 1 µM. The same measure, in the same setting: the same measure for `COc1ccc(/C=C/CN(C)Cc2ccc3c(c2)OCCO3)cc1`: 0.0486 µM; for `COc1ccccc1/C=C/CN(C)Cc1ccc2c(c1)OCCO2`: > 1 µM.

On to `CC(=O)NC[C@H]1CN(c2ccc(N3CCOCC3)c(F)c2)C(=O)O1`, for which the result in data set [8], in data set [9], in data set [10], in [11], in data set [12] and in data set [13] was Active. The outcome in data set [16], in data set [17], in data set [18] and in data set [19] was Active.

Broadly, the IC50 is the midpoint of a concentration-inhibition curve. Usually solubility stands for the concentration that dissolves in the medium under given conditions. A higher solubility goes with a readily soluble substance. As a reminder, the half-life is the time in which the quantity being followed falls by half. A higher half-life goes with slow loss.

The record behind these values is ChEMBL document CHEMBL4251700, “Novel Staphyloxanthin Inhibitors with Improved Potency against Multidrug Resistant Staphylococcus aureus” (ACS Med Chem Lett, 2018).
